Results reported in ChEMBL document CHEMBL1153323, “Design, synthesis, and evaluation of peptidomimetics containing Freidinger lactams as STAT3 inhibitors” (Bioorg Med Chem Lett, 2009).
Where a SMILES comes first, the peptide text is derived from it. [ ]: non-standard residue; d: D form. The star is where a group is joined. pY = N[C@@H](Cc1ccc(OP(=O)(O)O)cc1)C(=O)O; Cbz = O=C(OCc1ccccc1)*; NHBn = c1ccc(CN*)cc1

target: Signal transducer and activator of transcription 3 (Homo sapiens, UniProt P40763); experiment: Displacement of fluorescent tagged beta-(Ala)-beta-(Ala)-G-pYLPQTV from human recombinant STAT3 by fluorescence polarization assay
Sequence (P40763 whole entry): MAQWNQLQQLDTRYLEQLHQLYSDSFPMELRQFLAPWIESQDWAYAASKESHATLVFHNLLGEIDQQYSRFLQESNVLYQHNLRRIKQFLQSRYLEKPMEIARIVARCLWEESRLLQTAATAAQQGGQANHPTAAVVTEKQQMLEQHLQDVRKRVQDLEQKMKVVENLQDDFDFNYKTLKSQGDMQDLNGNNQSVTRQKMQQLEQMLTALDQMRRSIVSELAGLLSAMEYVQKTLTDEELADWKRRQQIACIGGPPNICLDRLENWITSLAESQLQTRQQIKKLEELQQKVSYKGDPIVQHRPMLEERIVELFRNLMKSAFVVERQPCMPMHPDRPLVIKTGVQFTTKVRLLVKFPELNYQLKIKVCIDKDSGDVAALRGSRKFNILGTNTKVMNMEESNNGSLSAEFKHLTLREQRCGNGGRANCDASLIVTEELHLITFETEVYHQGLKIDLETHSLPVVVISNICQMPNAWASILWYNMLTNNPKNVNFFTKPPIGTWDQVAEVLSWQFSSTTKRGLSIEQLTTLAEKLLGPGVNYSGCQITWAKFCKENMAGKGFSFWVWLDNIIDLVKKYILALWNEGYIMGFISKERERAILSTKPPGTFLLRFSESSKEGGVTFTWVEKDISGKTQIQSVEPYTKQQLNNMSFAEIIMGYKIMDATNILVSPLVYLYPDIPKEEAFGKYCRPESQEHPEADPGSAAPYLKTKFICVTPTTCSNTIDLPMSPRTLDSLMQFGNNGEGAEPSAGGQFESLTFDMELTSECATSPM

| Ki [µM] | SMILES |
| --- | --- |
| 0.35 | CC(C)C[C@H](NC(=O)[C@H](Cc1ccc(OP(=O)(O)O)cc1)NC(=O)OCc1ccccc1)C(=O)N1CCC[C@H]1C(=O)N[C@@H](CCC(N)=O)C(=O)NCc1ccccc1 (Cbz-[pY]LPQ-NHBn) |
| 3.13 | NC(=O)CC[C@H](NC(=O)CN1CCC[C@H](NC(=O)[C@H](Cc2ccc(OP(=O)(O)O)cc2)NC(=O)OCc2ccccc2)C1=O)C(=O)NCc1ccccc1 |
| 0.19 | NC(=O)CC[C@H](NC(=O)CN1CCCC[C@H](NC(=O)[C@H](Cc2ccc(OP(=O)(O)O)cc2)NC(=O)OCc2ccccc2)C1=O)C(=O)NCc1ccccc1 |
